Results taken from patent US9662318B2, “Bitopic muscarinic agonists and antagonists and methods of synthesis and use thereof” (BARRY UNIVERSITY, INC., priority 2012, dated 2017).

Experiments:
Experiment in all cases: Dissociation of [3H]NMS (full time course kinetics)
Assay type in all cases: binding
M4 muscarinic receptor = target: T1, M4 muscarinic receptor (Homo sapiens, UniProt P08173); settings: [^3H]NMS dissociation
T1 construct: host or cells: Chinese hamster ovary cells
T1 sequence (P08173 1-479): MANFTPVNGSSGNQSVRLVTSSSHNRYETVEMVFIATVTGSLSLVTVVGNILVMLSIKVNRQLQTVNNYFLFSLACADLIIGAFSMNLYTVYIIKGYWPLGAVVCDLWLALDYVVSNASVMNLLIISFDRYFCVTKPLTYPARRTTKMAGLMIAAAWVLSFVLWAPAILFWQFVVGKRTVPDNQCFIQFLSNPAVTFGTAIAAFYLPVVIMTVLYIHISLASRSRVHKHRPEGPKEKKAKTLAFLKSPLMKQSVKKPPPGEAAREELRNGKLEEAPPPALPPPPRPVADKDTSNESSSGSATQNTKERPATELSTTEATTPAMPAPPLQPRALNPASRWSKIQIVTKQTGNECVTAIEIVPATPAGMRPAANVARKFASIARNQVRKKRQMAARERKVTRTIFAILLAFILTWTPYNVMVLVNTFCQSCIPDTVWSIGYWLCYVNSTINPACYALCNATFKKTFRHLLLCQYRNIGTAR
Description: (§1) To probe the ability of JB-D4 to allosterically modulate orthosteric ligand, its effect on the rate of orthosteric radioligand dissociation has been investigated. […] Eq. 1 was fitted to the data from kinetic experiments. Data are means±SD from 3 independent experiments performed in quadruplicates. Equations: y=(100-f2)*e^(-Koff1*X)+f2*e^(-Koff2*X) (Eq. 1) where y is the percentage of radioligand binding at time x of radioligand binding at time 0, koff1 and koff2 are rate dissociation constants and f2 is the percentage of sites with koff2 rate of dissociation. […]. 2)

M1 muscarinic receptor = target: T2, M1 muscarinic receptor (Homo sapiens, UniProt P11229); settings: [^3H]NMS dissociation
T2 sequence (P11229 1-460): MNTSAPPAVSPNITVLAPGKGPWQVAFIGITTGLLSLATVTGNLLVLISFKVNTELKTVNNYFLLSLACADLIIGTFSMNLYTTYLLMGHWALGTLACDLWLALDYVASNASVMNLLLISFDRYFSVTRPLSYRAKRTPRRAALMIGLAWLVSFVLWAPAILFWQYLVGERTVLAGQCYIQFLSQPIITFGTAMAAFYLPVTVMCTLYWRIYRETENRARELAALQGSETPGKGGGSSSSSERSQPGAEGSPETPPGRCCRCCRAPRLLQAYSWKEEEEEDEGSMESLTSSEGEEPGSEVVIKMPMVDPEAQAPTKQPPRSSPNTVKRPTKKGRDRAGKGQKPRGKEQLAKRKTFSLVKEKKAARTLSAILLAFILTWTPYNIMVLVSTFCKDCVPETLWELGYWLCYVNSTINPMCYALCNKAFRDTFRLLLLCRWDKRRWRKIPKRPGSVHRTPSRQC
Description: as §1

M5 muscarinic receptor = target: T3, M5 muscarinic receptor (Homo sapiens, UniProt P08912); settings: [^3H]NMS dissociation, +0.1 mM JB-D4, M5
T3 construct: host or cells: CHO (Chinese hamster ovary) cells, stably transfected
T3 sequence (P08912 1-532): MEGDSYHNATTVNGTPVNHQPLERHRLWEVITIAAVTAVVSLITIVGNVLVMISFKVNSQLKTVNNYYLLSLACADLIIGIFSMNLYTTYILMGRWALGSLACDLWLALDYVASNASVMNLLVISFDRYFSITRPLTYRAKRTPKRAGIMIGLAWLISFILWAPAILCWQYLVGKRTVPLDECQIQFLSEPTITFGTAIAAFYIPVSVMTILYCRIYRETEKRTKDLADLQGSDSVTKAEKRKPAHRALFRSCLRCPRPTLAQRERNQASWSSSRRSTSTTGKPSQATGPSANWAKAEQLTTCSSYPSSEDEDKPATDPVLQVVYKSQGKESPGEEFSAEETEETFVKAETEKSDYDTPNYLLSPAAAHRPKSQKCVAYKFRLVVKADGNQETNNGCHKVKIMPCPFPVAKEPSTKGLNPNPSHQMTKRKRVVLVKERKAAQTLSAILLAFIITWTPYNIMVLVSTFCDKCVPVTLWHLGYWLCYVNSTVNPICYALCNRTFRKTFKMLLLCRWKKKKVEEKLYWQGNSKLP
Description: as §1

M3 muscarinic receptor = target: T4, M3 muscarinic receptor (Homo sapiens, UniProt P20309); settings: [^3H]NMS dissociation
T4 construct: host or cells: Chinese hamster ovary cells
Description: as §1

T4 sequence (P20309 whole entry): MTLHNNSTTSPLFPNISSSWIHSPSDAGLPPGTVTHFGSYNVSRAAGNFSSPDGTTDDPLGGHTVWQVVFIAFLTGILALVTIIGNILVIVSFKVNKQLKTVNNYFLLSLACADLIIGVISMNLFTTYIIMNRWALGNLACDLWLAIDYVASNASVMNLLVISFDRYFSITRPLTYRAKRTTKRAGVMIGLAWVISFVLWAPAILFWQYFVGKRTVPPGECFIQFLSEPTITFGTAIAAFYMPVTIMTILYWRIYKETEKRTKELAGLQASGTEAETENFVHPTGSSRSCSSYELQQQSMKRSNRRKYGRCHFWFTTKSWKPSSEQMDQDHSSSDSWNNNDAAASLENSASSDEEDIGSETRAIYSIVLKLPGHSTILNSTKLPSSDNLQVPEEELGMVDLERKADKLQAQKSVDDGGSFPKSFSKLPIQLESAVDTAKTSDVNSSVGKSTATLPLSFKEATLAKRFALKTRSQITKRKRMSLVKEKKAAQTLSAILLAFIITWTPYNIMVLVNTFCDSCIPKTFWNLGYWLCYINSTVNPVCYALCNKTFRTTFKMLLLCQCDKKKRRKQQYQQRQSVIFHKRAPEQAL

SMILES: CCCCOc1ccc(C(=O)OCC[N+]2(C)CCCCC2)cc1.[I-] [JB-D4, 2-(N-piperidineethyl) p-butoxybenzoate N-methyl iodide]
- koff1 (M4 muscarinic receptor; +0.1 mM JB-D4, M4): 0.000106 ± 8.3e-06 s⁻¹
- koff1 (M4 muscarinic receptor; +1 mM JB-D4, M4): 2.11e-05 ± 1.7e-06 s⁻¹
- koff1 (M1 muscarinic receptor; +0.1 mM JB-D4, M1): 0.000253 ± 1.4e-05 s⁻¹
- koff2 (M1 muscarinic receptor; +0.1 mM JB-D4, M1): 0.000319 ± 1.7e-05 s⁻¹
- f2 (M1 muscarinic receptor; +0.1 mM JB-D4, M1, percentage of sites with koff2): 12 ± 1%
- koff1 (M1 muscarinic receptor; +1 mM JB-D4, M1): 0.000169 ± 1.7e-05 s⁻¹
- koff1 (M5 muscarinic receptor): 5e-05 ± 2.8e-06 s⁻¹
- koff1 (M3 muscarinic receptor; +0.1 mM JB-D4, M3): 0.000114 ± 8.3e-06 s⁻¹
- koff1 (M3 muscarinic receptor; +1 mM JB-D4, M3): 2.36e-05 ± 2.2e-06 s⁻¹
